# Source: US11912755B2, “Endostatin fragments and variants for use in treating fibrosis” (iBio, Inc., priority 2015, dated 2024)
# “Also recorded” adds a separate entry of the source. Ends that are not written are not given here.
# Columns and labels:
# HGF = test: Genes regulated by E4: HGF; format: cell-based, human; conditions: HuF-T and mouse bleomycin model of pulmonary fibrosis; RT-qPCR, protein expression
# Procedure: (§1) Several experiments have been performed to identify the mechanisms by which E4 exerts its anti-fibrotic activity. Real-time quantitative PCR (qPCR)-based arrays were performed on RNA extracted from primary human lung fibroblasts or mouse lung tissue stimulated with various fibrotic triggers in the absence and presence of E4 treatment in order to identify genes influenced by the endostatin peptide.
# (§2) The arrays identified several genes that have been previously implicated in fibrosis to be influenced by E4 treatment. These genes included connective tissue growth factor (CTGF), insulin-like growth factor binding protein (IGFBP)-3, matrix metalloproteases (MMP)-1 and MMP-3, urokinase plasminogen activator (uPA), plasminogen activator inhibitor (PAI)-1, and hepatocyte growth factor (HGF) with levels either decreased or increased in the presence of E4 as shown in TABLE 5.
# lysyl oxidase (LOX) = test: LOX immunohistochemistry in lung sections of bleomycin-treated mice; format: in vivo, mouse; conditions: bleomycin with or without E4
# Text: FIG. 12. […] Lung sections of mice treated with BLM with or without E4 were used in immunohistochemistry to detect LOX. The sections shown are control IgG, phosphate buffered saline, bleomycin and bleomycin followed by treatment with E4.
# [1] = tested on: bleomycin induced dermal fibrosis; conditions: s.c.; single dose prophylactically, or multiple dose regimen starting 3 days after bleomycin; cited from earlier work
# HUVECs = test: Tubular formation assay in MATRIGEL; format: cell-based, human; conditions: 50 nM, 24 hours
# Procedure: Tubular formation assay. The ability of endostatin peptide to inhibit angiogenesis was examined in tubular formation assay using MATRIGEL® culture. Human umbilical vein endothelial cells (HUVECs) were maintained in endothelial cell basal medium-2 (EBM-2; Clonetics, San Diego, CA) supplemented with EBM-2 MV SINGLEQUOTS®. HUVECs (5×10^4) were cultured in duplicate on 24-well MATRIGEL® plates (BD Biosciences, San Diego, CA) alone, or in the presence of rE or E4 peptide (50 nM) in EBM-2 at 37° C. DMSO was used as vehicle control. After 24 hours, images were captured using a […] microscope. The degree of cord formation was quantified by measuring the area occupied by tubes in 6 random fields per well. Three independent experiments were performed.
# MMP-3 = test: Genes regulated by E4: MMP-3; format: cell-based, human; conditions: HuF-T; RT-qPCR, protein expression levels, zymography
# Procedure: as §1, §2
# [2] = tested on: TGF-β-induced dermal fibrosis in mouse skin; conditions: single dose concurrently with TGF-β; cited from earlier work
# uPA = test: Genes regulated by E4: uPA; format: cell-based, human; conditions: HuF-T; RT-qPCR, protein expression levels, enzyme activity
# Procedure: as §1, §2
# [3] = tested on: bleomycin induced dermal fibrosis; test: Bleomycin-induced dermal fibrosis in mouse skin; format: in vivo; conditions: single administration of E4 10 μg/ml on first day, daily bleomycin; skin harvested after 10 days
# Procedure: FIGS. 8A-8B. The effect of endostatin E-4 on bleomycin induced dermal fibrosis in vivo. FIG. 8A: Mice were injected subcutaneously with 1×PBS as vehicle (V) or Bleomycin (Bleo; 20 μg/mouse) daily. E-4 (10 μg/ml) was mixed with bleomycin on the first day, and daily bleomycin administration was continued without subsequent injections of E4 (Bleo+E-4). Skin was harvested after 10 days. Sections were stained with H&E. Magnification, 100×. Data represent three independent experiments. Mann-Whitney U test was used for statistical analysis. * P<0.001, **P<0.00001.
# E4, a peptide representing the carboxy terminus of human endostatin, can attenuate fibrosis triggered by multiple fibrogenic factors. The anti-fibrotic effects of E4 can be detected whether administered concomitantly with or following the fibrogenic trigger. The efficacy of E4 was confirmed in […] pre-clinical models of fibrosis: a) bleomycin-induced dermal fibrosis in vivo in mouse skin, b) TGF-β induced dermal fibrosis in mouse skin, and c) bleomycin-induced pulmonary fibrosis. […]
# For these studies, fibrosis was assessed by measurement of dermal thickness on H&E skin sections (skin), assessment of collagen levels by Masson Trichrome staining (skin and lung), and measurement of collagen levels by Sircol assay (lung). […] Results were assessed using the unpaired t test and the 3-way ANOVA (for the ID1 data).
# Egr-1 = test: Western blot of Egr-1 in primary human lung fibroblasts; format: cell-based; conditions: harvested after 24 hours
# Procedure: FIG. 16. […] Reduction of Egr-1 levels parallels that of collagen, SMA, and fibronectin. Lane 1: vehicle (DMSO); Lane 2: E4; Lane 3: TGFβ, Lane 4 TGFβ followed by E4 after 60 minutes. The samples were harvested after 24 hours.
# In addition, E4 increases levels of inhibitor of differentiation (ID)-1, a transcription factor that inhibits TGF-β effects (see FIG. 15). It was determined in a Western blot analysis that E4 reduces the levels of the master switch transcription factor, Egr-1 (see FIG. 16) in primary human lung fibroblasts, treated and harvested after 24 hours. The reduction of Egr-1 levels parallels a reduction in collagen, SMA and fibronectin. Egr-1 is known to mediate the effects of several fibrotic agents (including TGF-β and bleomycin).
# CTGF = test: Genes regulated by E4: CTGF; format: cell-based; conditions: primary human fibroblasts treated with bleomycin or TGF-β; RT-qPCR
# Procedure: as §1, §2
substance,measurement,setting,value
"E4: SEQ ID NO: 21, amino acids 133-180 of human endostatin with a C-terminal amide (SYCETWRTEAPSATGQASSLLGGRLLGQSAASCHHAYIVLCIENSFMT-NH2; cysteine pairing not given here)",Effect of E4 peptide on HGF,HGF,induces conversion of pro-HGF to its active chains; also recorded: Increase
same,LOX levels in lung,lysyl oxidase (LOX),reduces levels; also recorded: reducing levels
same,skin thickness,[1],E4 significantly decreased skin
same,inhibition of tubular structure formation (anti-angiogenic activity),HUVECs,modest and low and minimal anti-angiogenic activity
same,Effect of E4 peptide on MMP-3,MMP-3,increased levels and activity; also recorded: Increase
same,skin thickness,[2],significantly decreased skin
same,Effect of E4 peptide on uPA,uPA,Increase
same,bleomycin induced dermal fibrosis,[3],significant attenuation
same,Egr-1 levels,Egr-1,reduces
same,Egr-1 levels,Egr-1; listed as E-4,reducing levels
same,Effect of E4 peptide on CTGF,CTGF,reduces; also recorded: Decrease
